Assays:
PHLPP2 [1] = test: PHLPP2 phosphorylation (Phos-tag mobility shift; IP and phospho-PKA substrate immunoblot) in hepatocytes; assay type: cell-based, mouse
Text: To investigate the effect of PKA on PHLPP2 phosphorylation in primary hepatocytes, either WT or S1119/1210A mutant of PHLPP2 was immunoprecipitated from cell extracts treated with glucagon or forskolin, and then subjected to immunoblot analysis with an antibody specific for phosphorylated PKA substrate proteins.

PHLPP2 [2] = test: Western blot of PHLPP2 levels in primary hepatocytes / Hepa1c1c7 cells; assay type: cell-based, mouse; conditions: short- or long-term treatment, Rapamycin (20 nM), Torin1 (250 nM)
Text: The GFP, Raptor and PHLPP1/2 adenoviruses have been described (Miyamoto et al., 2010; Pajvani et al., 2013). The HA-Flag-PHLPP2 adenovirus was constructed by inserting a Flag sequence into HA-PHLPP2 vector (Addgene #22403, courtesy of Alexandra Newton) and adenoviruses encoding HA-Flag-PHLPP2 generated by Welgen, Inc. (Worcester, Mass.). Mouse shPhlpp1 or 2 target sequences were selected among three candidate sequences, respectively and adenoviruses encoding shPhlpp1 or 2 generated by Welgen, Inc. For in vivo studies, we injected […] or 2.5×10^8 purified viral particles per g body weight; we performed metabolic analysis on days 3-5 and euthanized the mice at day 8 or 10 after injection. Infection with adenovirus in primary hepatocytes or Hepa1c1c7 cells was performed at 2.5, 5, or 10 multiplicity of infection (MOI).
We isolated and cultured primary mouse hepatocytes as previously described (Kim et al., 2012). For inhibitor experiments, we treated hepatocytes with 20 nM rapamycin (Cell Signaling), 250 nM Torin1, or vehicle for either 1 h or 24 h.
Tissues and cells were lysed in 0.3% CHAPS lysis buffer (Kim et al., 2002) unless otherwise stated, and whole cell lysates obtained by centrifugation. […]

free Raptor = test: DSS crosslinking assay for free Raptor in hepatocytes and hepatoma cells; assay type: cell-based, mouse
Procedure: Liver was lysed in 1% Triton X-100 lysis buffer (Kim et al., 2002) with or without 2.5 mg/ml DSP or DSS, and incubated for 2 h on ice. Crosslinking was quenched with 1 M Tris-HCl (pH 7.5) for 30 min on ice. For in vitro crosslinking assays, DSP or DSS were added to a final concentration of 1 mg/ml culture medium, and quenched by Tris-HCl as above. Equal protein (BCA assay, Thermo) was then subjected to Western blot, with or without IP.

[3] = molecular target: T1, PH domain leucine-rich repeat protein phosphatase 2 (PHLPP2), endogenous (mouse, UniProt Q8BXA7 1-1320); test: anti-PHLPP2 IP from primary hepatocytes and Hepa1c1c7 cells with or without MG-132, Western blot (FIG. 19i, FIG. 28j)
T1 construct: Endogenous protein, immunoprecipitated with anti-PHLPP2 or co-precipitated with anti-Akt; also called endogenous PHLPP2
T1 sequence (looked up): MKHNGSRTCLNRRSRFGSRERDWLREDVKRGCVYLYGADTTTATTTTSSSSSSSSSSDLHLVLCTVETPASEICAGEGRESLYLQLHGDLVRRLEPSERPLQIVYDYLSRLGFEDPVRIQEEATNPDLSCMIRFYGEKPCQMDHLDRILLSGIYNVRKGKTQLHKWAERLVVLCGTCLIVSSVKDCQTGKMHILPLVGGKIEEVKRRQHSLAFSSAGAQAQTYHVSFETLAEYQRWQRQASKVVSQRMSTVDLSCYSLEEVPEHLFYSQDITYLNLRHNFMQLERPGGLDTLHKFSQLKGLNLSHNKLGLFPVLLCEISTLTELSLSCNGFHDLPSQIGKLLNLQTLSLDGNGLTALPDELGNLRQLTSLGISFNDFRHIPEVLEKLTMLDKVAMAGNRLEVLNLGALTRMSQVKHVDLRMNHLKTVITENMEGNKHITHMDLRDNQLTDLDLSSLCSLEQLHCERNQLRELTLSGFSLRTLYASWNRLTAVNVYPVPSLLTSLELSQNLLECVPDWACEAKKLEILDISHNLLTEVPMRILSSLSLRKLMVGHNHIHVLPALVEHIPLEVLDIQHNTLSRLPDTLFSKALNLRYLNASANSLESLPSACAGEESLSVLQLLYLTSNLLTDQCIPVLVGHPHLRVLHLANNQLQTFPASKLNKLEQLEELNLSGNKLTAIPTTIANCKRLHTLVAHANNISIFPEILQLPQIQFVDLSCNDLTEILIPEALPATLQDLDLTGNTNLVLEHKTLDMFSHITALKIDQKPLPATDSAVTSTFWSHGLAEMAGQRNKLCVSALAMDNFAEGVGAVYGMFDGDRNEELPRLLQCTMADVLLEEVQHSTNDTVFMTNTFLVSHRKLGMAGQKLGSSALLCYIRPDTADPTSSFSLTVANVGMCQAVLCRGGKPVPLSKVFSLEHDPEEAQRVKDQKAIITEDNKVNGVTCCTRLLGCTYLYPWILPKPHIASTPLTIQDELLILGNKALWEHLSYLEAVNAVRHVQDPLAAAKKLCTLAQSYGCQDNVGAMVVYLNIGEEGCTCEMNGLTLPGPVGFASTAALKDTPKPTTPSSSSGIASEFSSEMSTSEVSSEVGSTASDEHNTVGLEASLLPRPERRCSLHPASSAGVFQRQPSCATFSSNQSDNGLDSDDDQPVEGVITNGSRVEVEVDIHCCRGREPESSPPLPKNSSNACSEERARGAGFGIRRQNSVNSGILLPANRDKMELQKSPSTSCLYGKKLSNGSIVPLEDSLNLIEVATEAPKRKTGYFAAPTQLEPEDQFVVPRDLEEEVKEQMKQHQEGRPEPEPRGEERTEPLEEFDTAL

O=S(=O)(NCCNC/C=C/c1ccc(Br)cc1)c1cccc2cnccc12 [H89]
forskolin-mediated PHLPP2 phosphorylation (PHLPP2 [1]; pretreatment with PKA inhibitor): reduced

CCC(=O)N1CCN(c2ccc(-n3c(=O)ccc4cnc5ccc(-c6cnc7ccccc7c6)cc5c43)cc2C(F)(F)F)CC1 [Torin1]
decrease of basal or Raptor-increased PHLPP2 levels (PHLPP2 [2]): neither

glucagon
PKA-mediated phosphorylation of WT PHLPP2 (PHLPP2 [1]; primary hepatocytes, IP, phosphorylated PKA substrate antibody, not S1119A/S1210A mutant): robustly increased

insulin
free Raptor levels (free Raptor; brief exposure): ineffectual
free Raptor levels (free Raptor; prolonged high-dose treatment to induce insulin resistance, primary hepatocytes or Hepa1c1c7 cells): reduced

B1: β-TrCP (beta-transducin repeat-containing protein) (other, mouse, UniProt Q3ULA2 1-605, looked up)
chain: MDPAEAVLQEKALKFMCSMPRSLWLGCSSLADSMPSLRCLYNPGTGALTAFQNSSEREDCNNGEPPRKIIPEKNSLRQTYNSCARLCINQETVCLTSTAMKTENCVAKAKLANGTSSMIVPKQRKLSASYEKEKELCVKYFEQWSESDQVEFVEHLISQMCHYQHGHINSYLKPMLQRDFITALPARGLDHIAENILSYLDAKSLCAAELVCKEWYRVTSDGMLWKKLIERMVRTDSLWRGLAERRGWGQYLFKNKPPDENAPPNSFYRALYPKIIQDIETIESNWRCGRHSLQRIHCRSETSKGVYCLQYDDQKIVSGLRDNTIKIWDKSTLECKRILTGHTGSVLCLQYDERVIITGSSDSTVRVWDVNAGEMLNTLIHHCEAVLHLRFNNGMMVTCSKDRSIAVWDMASPTDITLRRVLVGHRAAVNVVDFDDKYIVSASGDRTIKVWNTSTCEFVRTLNGHKRGIACLQYRDRLVVSGSSDNTIRLWDIECGACLRVLEGHEELVRCIRFDNKRIVSGAYDGKIKVWDLMAALDPRAPAGTLCLRTLVEHSGRVFRLQFDEFQIVSSSHDDTILIWDFLNDPAAHAEPPRSPSRTYTYISR
notes: E3 ligase substrate recognition subunit of the SCF complex; endogenous protein in mouse cells
binding result [3]: binds

From patent US20170014477A1, “FREE RAPTOR REDUCES AGING- AND OBESITY-INDUCED FATTY LIVER” (The Trustees of Columbia University in the City of New York, priority 2015, published 2017)
